Reference: ChEMBL document CHEMBL3885881, “DrugMatrix”

Species on record: Rattus norvegicus
Assay: DrugMatrix - Regimen: Daily Repeat
Format: toxicity, organism-based, Sprague-Dawley
Design: regimen Daily Repeat, gender Male, age 6-8 weeks
Details: in vivo, po, route oral GAVAGE, […]; for ABSOLUTE BASOPHIL / ABSOLUTE EOSINOPHIL / ABSOLUTE LYMPHOCYTE / ABSOLUTE MONOCYTE / ABSOLUTE SEGMENTED NEUTROPHIL / BASOPHIL / EOSINOPHIL / ERYTHROCYTE COUNT / HEMATOCRIT / HEMOGLOBIN / LEUKOCYTE COUNT / LYMPHOCYTE / MEAN CORPUSCULAR HEMOGLOBIN / MEAN CORPUSCULAR HEMOGLOBIN CONCENTRATION / MEAN CORPUSCULAR VOLUME / MONOCYTE / NEUTROPHIL / NUCLEATED RED BLOOD CELLS / PLATELET COUNT: tissue Blood; for ALANINE AMINOTRANSFERASE / ALBUMIN / ALKALINE PHOSPHATASE / ASPARTATE AMINOTRANSFERASE / BLOOD UREA NITROGEN / CARBON DIOXIDE / CHLORIDE / CHOLESTEROL / CREATINE PHOSPHOKINASE / CREATININE / GLUCOSE / LACTATE DEHYDROGENASE / LIPASE / PHOSPHORUS / POTASSIUM / SODIUM / TOTAL BILIRUBIN / TOTAL PROTEIN / URIC ACID: tissue Plasma
[1] = 25 mg/kg, 72 h, dose level Low, time 3 day
[2] = 25 mg/kg, 120 h, dose level Low, time 5 day
[3] = 250 mg/kg, 72 h, dose level High, time 3 day
[4] = 250 mg/kg, 120 h, dose level High, time 5 day

CC(C)C(Br)C(=O)NC(N)=O (configuration not stated) [BROMISOVALUM]
ABSOLUTE BASOPHIL [1]: 0 CELLS/uL
ABSOLUTE EOSINOPHIL [1]: 72.33 CELLS/uL
ABSOLUTE LYMPHOCYTE [1]: 9251.33 CELLS/uL
ABSOLUTE MONOCYTE [1]: 35.67 CELLS/uL
ABSOLUTE SEGMENTED NEUTROPHIL [1]: 740.67 CELLS/uL
BASOPHIL [1]: 0%
EOSINOPHIL [1]: 0.67%
ERYTHROCYTE COUNT [1]: 5.09 x10E6/uL
HEMATOCRIT [1]: 32.1%
HEMOGLOBIN [1]: 12.97 G/DL
LEUKOCYTE COUNT [1]: 10.1 x10E3/uL
LYMPHOCYTE [1]: 91.67%
MEAN CORPUSCULAR HEMOGLOBIN [1]: 25.47 pg
MEAN CORPUSCULAR HEMOGLOBIN CONCENTRATION [1]: 40.4 G/DL
MEAN CORPUSCULAR VOLUME [1]: 63.03 fL
MONOCYTE [1]: 0.33%
NEUTROPHIL [1]: 7.33%
NUCLEATED RED BLOOD CELLS [1]: 0 /100WBC
PLATELET COUNT [1]: 1168.33 x10E3/uL
ALANINE AMINOTRANSFERASE [1]: 71.33 u/L
ALBUMIN [1]: 4.37 G/DL
ALKALINE PHOSPHATASE [1]: 465.67 u/L
ASPARTATE AMINOTRANSFERASE [1]: 81.33 u/L
BLOOD UREA NITROGEN [1]: 12.67 mg/dL
CARBON DIOXIDE [1]: 33.33 mmol/L
CHLORIDE [1]: 101 MEQ/L
CHOLESTEROL [1]: 83 mg/dL
CREATINE PHOSPHOKINASE [1]: 114.33 u/L
CREATININE [1]: 0.13 mg/dL
GLUCOSE [1]: 140.33 mg/dL
LACTATE DEHYDROGENASE [1]: 109.33 u/L
LIPASE [1]: 12.67 u/L
PHOSPHORUS [1]: 10.3 mg/dL
POTASSIUM [1]: 5.88 MEQ/L
SODIUM [1]: 149.4 MEQ/L
TOTAL BILIRUBIN [1]: 0.23 mg/dL
TOTAL PROTEIN [1]: 5.6 G/DL
URIC ACID [1]: 0.63 mg/dL
ABSOLUTE BASOPHIL [2]: 0 CELLS/uL
ABSOLUTE EOSINOPHIL [2]: 0 CELLS/uL
ABSOLUTE LYMPHOCYTE [2]: 11869 CELLS/uL
ABSOLUTE MONOCYTE [2]: 46.67 CELLS/uL
ABSOLUTE SEGMENTED NEUTROPHIL [2]: 851 CELLS/uL
BASOPHIL [2]: 0%
EOSINOPHIL [2]: 0%
ERYTHROCYTE COUNT [2]: 5.78 x10E6/uL
HEMATOCRIT [2]: 35.77%
HEMOGLOBIN [2]: 14.1 G/DL
LEUKOCYTE COUNT [2]: 12.77 x10E3/uL
LYMPHOCYTE [2]: 93%
MEAN CORPUSCULAR HEMOGLOBIN [2]: 24.37 pg
MEAN CORPUSCULAR HEMOGLOBIN CONCENTRATION [2]: 39.43 G/DL
MEAN CORPUSCULAR VOLUME [2]: 61.83 fL
MONOCYTE [2]: 0.33%
NEUTROPHIL [2]: 6.67%
NUCLEATED RED BLOOD CELLS [2]: 0 /100WBC
PLATELET COUNT [2]: 1234 x10E3/uL
ALANINE AMINOTRANSFERASE [2]: 59.67 u/L
ALBUMIN [2]: 4.33 G/DL
ALKALINE PHOSPHATASE [2]: 401 u/L
ASPARTATE AMINOTRANSFERASE [2]: 86.33 u/L
BLOOD UREA NITROGEN [2]: 12.67 mg/dL
CARBON DIOXIDE [2]: 27 mmol/L
CHLORIDE [2]: 103 MEQ/L
CHOLESTEROL [2]: 65 mg/dL
CREATINE PHOSPHOKINASE [2]: 275 u/L
CREATININE [2]: 0.14 mg/dL
GLUCOSE [2]: 162.67 mg/dL
LACTATE DEHYDROGENASE [2]: 114.33 u/L
LIPASE [2]: 9.67 u/L
PHOSPHORUS [2]: 12.73 mg/dL
POTASSIUM [2]: 6.6 MEQ/L
SODIUM [2]: 147.97 MEQ/L
TOTAL BILIRUBIN [2]: 0.2 mg/dL
TOTAL PROTEIN [2]: 6.17 G/DL
URIC ACID [2]: 1.7 mg/dL
ABSOLUTE BASOPHIL [3]: 0 CELLS/uL
ABSOLUTE EOSINOPHIL [3]: 0 CELLS/uL
ABSOLUTE LYMPHOCYTE [3]: 11820.33 CELLS/uL
ABSOLUTE MONOCYTE [3]: 38.33 CELLS/uL
ABSOLUTE SEGMENTED NEUTROPHIL [3]: 1174.67 CELLS/uL
BASOPHIL [3]: 0%
EOSINOPHIL [3]: 0%
ERYTHROCYTE COUNT [3]: 5.57 x10E6/uL
HEMATOCRIT [3]: 35.87%
HEMOGLOBIN [3]: 14.33 G/DL
LEUKOCYTE COUNT [3]: 13.03 x10E3/uL
LYMPHOCYTE [3]: 91%
MEAN CORPUSCULAR HEMOGLOBIN [3]: 25.8 pg
MEAN CORPUSCULAR HEMOGLOBIN CONCENTRATION [3]: 39.97 G/DL
MEAN CORPUSCULAR VOLUME [3]: 64.47 fL
MONOCYTE [3]: 0.33%
NEUTROPHIL [3]: 8.67%
NUCLEATED RED BLOOD CELLS [3]: 0 /100WBC
PLATELET COUNT [3]: 1177.33 x10E3/uL
ALANINE AMINOTRANSFERASE [3]: 70 u/L
ALBUMIN [3]: 4.17 G/DL
ALKALINE PHOSPHATASE [3]: 407.67 u/L
ASPARTATE AMINOTRANSFERASE [3]: 90.33 u/L
BLOOD UREA NITROGEN [3]: 15 mg/dL
CARBON DIOXIDE [3]: 27.33 mmol/L
CHLORIDE [3]: 103 MEQ/L
CHOLESTEROL [3]: 62.67 mg/dL
CREATINE PHOSPHOKINASE [3]: 210.67 u/L
CREATININE [3]: 0.26 mg/dL
GLUCOSE [3]: 148 mg/dL
LACTATE DEHYDROGENASE [3]: 109.33 u/L
LIPASE [3]: 10.33 u/L
PHOSPHORUS [3]: 11.9 mg/dL
POTASSIUM [3]: 6.86 MEQ/L
SODIUM [3]: 144.53 MEQ/L
TOTAL BILIRUBIN [3]: 0.2 mg/dL
TOTAL PROTEIN [3]: 5.67 G/DL
URIC ACID [3]: 1.67 mg/dL
ABSOLUTE BASOPHIL [4]: 0 CELLS/uL
ABSOLUTE EOSINOPHIL [4]: 46.33 CELLS/uL
ABSOLUTE LYMPHOCYTE [4]: 14344.33 CELLS/uL
ABSOLUTE MONOCYTE [4]: 108 CELLS/uL
ABSOLUTE SEGMENTED NEUTROPHIL [4]: 1434.67 CELLS/uL
BASOPHIL [4]: 0%
EOSINOPHIL [4]: 0.33%
ERYTHROCYTE COUNT [4]: 6.03 x10E6/uL
HEMATOCRIT [4]: 36.47%
HEMOGLOBIN [4]: 14.63 G/DL
LEUKOCYTE COUNT [4]: 15.93 x10E3/uL
LYMPHOCYTE [4]: 89.67%
MEAN CORPUSCULAR HEMOGLOBIN [4]: 24.23 pg
MEAN CORPUSCULAR HEMOGLOBIN CONCENTRATION [4]: 40.13 G/DL
MEAN CORPUSCULAR VOLUME [4]: 60.47 fL
MONOCYTE [4]: 0.67%
NEUTROPHIL [4]: 9.33%
NUCLEATED RED BLOOD CELLS [4]: 0 /100WBC
PLATELET COUNT [4]: 1192.33 x10E3/uL
ALANINE AMINOTRANSFERASE [4]: 64.67 u/L
ALBUMIN [4]: 4.43 G/DL
ALKALINE PHOSPHATASE [4]: 429.33 u/L
ASPARTATE AMINOTRANSFERASE [4]: 83.67 u/L
BLOOD UREA NITROGEN [4]: 13.33 mg/dL
CARBON DIOXIDE [4]: 25.67 mmol/L
CHLORIDE [4]: 104 MEQ/L
CHOLESTEROL [4]: 55 mg/dL
CREATINE PHOSPHOKINASE [4]: 157.67 u/L
CREATININE [4]: 0.2 mg/dL
GLUCOSE [4]: 140.67 mg/dL
LACTATE DEHYDROGENASE [4]: 110.67 u/L
LIPASE [4]: 9.67 u/L
PHOSPHORUS [4]: 9.97 mg/dL
POTASSIUM [4]: 6.56 MEQ/L
SODIUM [4]: 144.1 MEQ/L
TOTAL BILIRUBIN [4]: 0.2 mg/dL
TOTAL PROTEIN [4]: 6.27 G/DL
URIC ACID [4]: 1.53 mg/dL
